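Step 1: Grow cells in 96-well plates. Step 2: Expose to compound for 48 hours at 5 concentrations. Step 3: Interpolate endpoints linearly; if unreached, use highest concentration. Abbreviation: GI50, concentration required for 50% inhibition of growth. TGI marks complete inhibition of growth.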
Columns and labels:
Assay in all cases: NCI tumour cell line growth inhibition, 48 h
MOLT-4 leukemia = test system: MOLT-4 leukemia
SK-MEL-5 melanoma = test system: SK-MEL-5 melanoma
HOP-62 NSCLC = test system: HOP-62 NSCLC
HL-60(TB) leukemia = test system: HL-60(TB) leukemia
ACHN renal = test system: ACHN renal
NCI-H460 lung = test system: NCI-H460 lung
NCI-H522 lung = test system: NCI-H522 lung
EKVX NSCLC = test system: EKVX NSCLC
NCI-H226 lung = test system: NCI-H226 lung
BT-549 breast = test system: BT-549 breast

Structure (SMILES) | GI50 (MOLT-4 leukemia) | TGI (MOLT-4 leukemia) | GI50 (SK-MEL-5 melanoma) | TGI (SK-MEL-5 melanoma) | GI50 (HOP-62 NSCLC) | TGI (HOP-62 NSCLC) | GI50 (HL-60(TB) leukemia) | TGI (HL-60(TB) leukemia) | GI50 (ACHN renal) | TGI (ACHN renal) | GI50 (NCI-H460 lung) | TGI (NCI-H460 lung) | GI50 (NCI-H522 lung) | TGI (NCI-H522 lung) | GI50 (EKVX NSCLC) | TGI (EKVX NSCLC) | GI50 (NCI-H226 lung) | TGI (NCI-H226 lung) | GI50 (BT-549 breast) | TGI (BT-549 breast)
NCCCNCCCNc1nc2ccccc2c2[nH]c3ccccc3c12 | 0.0252 µM | 3.62 µM | 0.362 µM | 1.81 µM | 0.0632 µM | 1.18 µM | 0.0375 µM | 1.3 µM | 0.112 µM | 2.82 µM | 0.0399 µM | 1.74 µM | 0.00716 µM | 0.563 µM | 2.09 µM | 5.8 µM | 0.125 µM | 1.6 µM | 1.05 µM | 2.4 µM
Nc1nccc(C#Cc2cncnc2Nc2ccc(OCc3cccc(F)c3)c(Cl)c2)n1 | 5.69 µM | 21.5 µM | 3.51 µM | 6.8 µM | 4.93 µM | 9.17 µM | 5.7 µM | 14.5 µM | 4.2 µM | 10.6 µM | 5.13 µM | 10.3 µM | 2.23 µM | 5.88 µM | 4.51 µM | 9.85 µM | 4.14 µM | 7.83 µM | 3.15 µM | 9.62 µM
COc1cccc(C2C3=C(COC3=O)N(CCO)c3cc4c(cc32)CCC4)c1 (stereo unspecified) | 0.162 µM | 1.94 µM | 0.0204 µM | 0.436 µM | 0.147 µM | > 16 µM | 0.111 µM | 0.314 µM | 0.0622 µM | > 50 µM | 0.0426 µM | 0.319 µM | 0.00644 µM | 0.0165 µM | 0.133 µM | > 50 µM | 0.274 µM | > 27.8 µM | 0.0819 µM | 1.19 µM
O=C1c2cccnc2-c2nc(-c3ccccc3)cc3c2c1nc1ccccc13 | 2.5 µM | 14.8 µM | 1.27 µM | 3.88 µM | 14.5 µM | 28.3 µM | 1.12 µM | 3.01 µM | 1.09 µM | 8 µM | 0.844 µM | 3.74 µM | 0.714 µM | 3.06 µM | 5.1 µM | 18.1 µM | 9.39 µM | 24.1 µM | 5.15 µM | 21.3 µM
S=c1nc(/C=C/c2ccc(Cl)c(Cl)c2)[nH][nH]1 |  | > 100 µM |  | > 100 µM |  | > 100 µM |  | > 100 µM |  | > 100 µM |  | > 100 µM |  | > 100 µM |  | > 100 µM |  | > 100 µM | 31.3 µM | > 100 µM
CN(C)c1ccc(N=C(C#N)c2nc(N)nc(N3CCOCC3)n2)cc1 | 60.8 µM | > 100 µM | 40.4 µM | > 100 µM | 55.2 µM | > 100 µM | 70.4 µM | > 100 µM | 23.3 µM | 68.4 µM | 48.1 µM | > 100 µM | 26.5 µM | > 100 µM | > 100 µM | > 100 µM | > 100 µM | > 100 µM | 35 µM | > 100 µM
CC(=O)C(CN1CCOCC1)C(c1ccccc1)c1c(O)c2ccccc2oc1=O (stereo unspecified) |  | > 100 µM |  | > 100 µM |  | > 100 µM |  | > 100 µM |  | > 100 µM |  | > 100 µM |  | > 100 µM |  | > 100 µM |  | > 100 µM |  | > 100 µM
c1ccc(COc2ccc(Nc3ncnc4ccc(-c5ccco5)cc34)cc2)cc1 | 11.7 µM | > 25 µM | 2.96 µM | 6.79 µM | 5.85 µM | 16 µM | 7.03 µM | 19.2 µM | 6.75 µM | > 25 µM | 2.84 µM | > 25 µM | 4.84 µM | 15.1 µM | 1.81 µM | > 25 µM | 5.73 µM | > 21.5 µM | 6.87 µM | > 25 µM
COc1ccc(C2=NN(c3ccc(S(N)(=O)=O)cc3)C(c3ccc(Cl)cc3)C2)c(O)c1 (stereo unspecified) | 1.92 µM | 5.07 µM | 6.24 µM | 19.1 µM | 9.35 µM | 28.5 µM | 1.86 µM | 4.99 µM | 3.58 µM | 50.6 µM | 2.31 µM | 6.08 µM | 2.42 µM | 11.1 µM | 2.71 µM | 10.5 µM | 5.6 µM | 19.3 µM | 4.07 µM | 13.6 µM
